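Five concentrations, 48 hours, 96-well plates. The concentration for 50% growth inhibition is given as GI50.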 The source made the active and inactive calls. Rule as the data show it: active = GI50 up to about 1.1 µM and inactive = higher.

Test systems include DMS-114; XF498; DLD-1; KM-20L2; MDA-N; MDA-MB-231; Hs-578T; 786-0; RXF 631.
What all share (test): inhibition of tumour cell growth, NCI panel, 48 h

On to `OCc1cc2ccncc2c2c1[nH]c1ccccc12`, for which the GI50 in the experiment with DMS-114 is 6.38 µM (inactive); in the experiment with XF498, 5.25 µM (inactive); in the experiment with DLD-1, 3.96 µM (inactive).

Consider `CNC(=O)OCc1nc(SC)n(C)c1CO`, for which the GI50 in the experiment with DMS-114, in the experiment on XF498, in the experiment on KM-20L2 and with DLD-1 was > 100 µM (inactive) in each case.

Consider `CC1=NN(C(=O)c2ccccc2)C(=O)C1/N=N/c1ccccc1C(=O)O` (stereo not given), for which the GI50 is 4.08 µM (inactive) with DMS-114, 2.72 µM (inactive) in the experiment with XF498, 63.1 µM (inactive) in the experiment on KM-20L2 and 6.89 µM (inactive) in the experiment on DLD-1.

As to `c1ccc2c(c1)c1ccccc1n2Cn1c2ccccc2c2ccccc21`, the GI50 with MDA-N and with MDA-MB-231 was > 100 µM (inactive) throughout.

Turning to `C=CNC(=S)n1nc(-c2ccccc2NC(=O)C(F)(F)F)c(=O)n(C(=S)NC=C)c1=S`, the figures for the GI50 in the experiment on DMS-114, with XF498 and in the experiment on DLD-1 were 12.3 µM (inactive), 30.2 µM (inactive) and 16.7 µM (inactive), respectively.

With `CCc1cc2c(oc3cc4ccccc4cc32)c(=O)[nH]1`, the GI50 with MDA-N, in the experiment with Hs-578T, with 786-0 and in the experiment on MDA-MB-231 was > 10 µM (inactive) throughout.

As for `O=C1CC2(CCC(O)(c3ccccc3)C(C(=O)c3ccccc3)C2)C(=O)c2ccccc2N1` (stereo not given), the GI50 in the experiment on MDA-N, with Hs-578T and with MDA-MB-231 was > 100 µM (inactive) each time.

On to `CCN(CC)CCSc1nc(-c2c[nH]c3nc(C)ccc3c2=O)n[nH]1`, for which the GI50 in the experiment on MDA-N, with Hs-578T, with 786-0 and in the experiment on MDA-MB-231 was > 100 µM (inactive) each time.

As for `COc1c(C(=O)/C(=N/Nc2ccccc2)C(C)=O)c(O)c(OC)c2occc12`, the GI50 in the experiment with MDA-N is 32.1 µM (inactive); with Hs-578T, 37.5 µM (inactive); in the experiment on 786-0 it was > 100 µM (inactive); in the experiment with MDA-MB-231 it was 18.5 µM (inactive).

Consider `CCOC(=O)/C=C(\C)c1ccc(C)cc1C`, for which the GI50 with DMS-114 was > 100 µM (inactive); with XF498 it was 23.4 µM (inactive); with KM-20L2, > 100 µM (inactive); in the experiment with DLD-1, 15.7 µM (inactive); in the experiment with RXF 631 it was > 100 µM (inactive).

As to `O=c1[nH]c2ccc([N+](=O)[O-])cc2nc1/C(=N/Nc1ccccc1)C(O)c1ccco1` (stereo not given), the GI50 with DMS-114 was 18.9 µM (inactive); with XF498, > 100 µM (inactive); in the experiment on KM-20L2 it was 41.1 µM (inactive); with DLD-1 it was > 100 µM (inactive); in the experiment on 786-0, > 100 µM (inactive).

On to `CCOC(=O)NC(=O)c1cn(C2CCCCC2)c(=O)n(C)c1=O`, for which the GI50 in the experiment on DMS-114, in the experiment with KM-20L2, with DLD-1, with RXF 631 and with 786-0 was > 100 µM (inactive) in each case.

For the compound `Nc1nncc2c1ccn2C1OC(CO)C(O)C1O` (stereo not given), the GI50 with DMS-114, in the experiment with KM-20L2 and in the experiment with DLD-1 was > 100 µM (inactive) in each case.

With `CSC1=N/C(=C\c2ccccc2)C(=O)N1CN1CCCCC1`, the GI50 was 88.3 µM (inactive) with MDA-N, 36.4 µM (inactive) in the experiment on Hs-578T, 42.2 µM (inactive) with 786-0 and 86.3 µM (inactive) in the experiment with MDA-MB-231.

Turning to `COc1ccc(C2c3cc4c(cc3OC(Nc3ccccc3)C2C)OCO4)cc1` (stereo not given), the GI50 in the experiment on MDA-N, in the experiment on Hs-578T and in the experiment with MDA-MB-231 was > 100 µM (inactive) throughout.

In the case of `Cc1c2cc[n+](C)cc2c(COC2OC(CO)C(O)C2O)c2c3ccccc3n(C)c12` (stereo not given), the GI50 is 46.3 µM (inactive) in the experiment with DMS-114, 50.7 µM (inactive) in the experiment with XF498, 31.6 µM (inactive) in the experiment with KM-20L2 and > 100 µM (inactive) in the experiment with DLD-1.

For the compound `CCC1(C)NN=c2s/c(=C/c3ccc(OC)cc3)c(=O)n2N1` (stereo not given), the GI50 in the experiment with XF498, in the experiment on KM-20L2, with DLD-1 and with 786-0 was > 100 µM (inactive) in each case.

`O=S(=O)(/N=C(\NO)Nc1ccc(Cl)cc1)c1ccc(-c2ccccn2)s1`: the GI50 in the experiment on MDA-N is 24.2 µM (inactive); in the experiment with Hs-578T, 28.8 µM (inactive); in the experiment with MDA-MB-231, 49.7 µM (inactive).

With `CN(C)CCNC(=O)c1cccc2c1Nc1ccccc1S2`, the GI50 is 6.76 µM (inactive) in the experiment on DMS-114, 12.6 µM (inactive) in the experiment on XF498, 16.2 µM (inactive) with KM-20L2 and 15.6 µM (inactive) with DLD-1.

Take `CNc1cc2c(c3ccccc13)C(CCl)CN2C(=O)c1cc2cc(OC)c(OC)c(OC)c2[nH]1` (stereo not given): the GI50 in the experiment with MDA-N was 0.00243 µM (active); in the experiment with Hs-578T, 0.00802 µM (active); with 786-0 it was 0.000809 µM (active); in the experiment with MDA-MB-231 it was 0.0074 µM (active).

The values are drawn from ChEMBL document CHEMBL1201862, “PubChem BioAssay data set” (2004).
